Results as given in patent US11820766B2, “Monoacylglycerol lipase modulators” (Janssen Pharmaceutica NV, priority 2018, dated 2023).
Structures can show the parent of a compound that is named as a salt.

target: T1, human MGL from HeLa cells (Homo sapiens, UniProt Q99685); test: In vitro MGL activity assay: [glycerol-1,3-3H]-oleyl glycerol cleavage by MGL from HeLa cells; type: biochemical; conditions: 300 nM [Glycerol-1,3-3H]-oleyl glycerol, one hour
T1 construct: combining endogenously expressed MGL from HeLa cells with test compounds; endogenous in cells; host or cells: HeLa cells / cell homogenates
T1 sequence (Q99685 1-303): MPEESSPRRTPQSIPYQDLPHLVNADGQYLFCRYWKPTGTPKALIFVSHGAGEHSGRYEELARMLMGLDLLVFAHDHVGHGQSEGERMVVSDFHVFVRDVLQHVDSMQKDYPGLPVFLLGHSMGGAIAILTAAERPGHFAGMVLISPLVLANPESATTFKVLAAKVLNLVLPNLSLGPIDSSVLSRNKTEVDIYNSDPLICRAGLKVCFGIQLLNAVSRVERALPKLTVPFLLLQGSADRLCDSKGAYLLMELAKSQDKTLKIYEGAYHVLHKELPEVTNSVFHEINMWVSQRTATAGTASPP
Excerpt: MGL is the predominant hydrolase in HeLa cells/cell homogenates.

For `C[C@H]1c2nn(C)c(-c3cc(F)c(F)c(F)c3)c2CCN1C(=O)c1cccn2ncc(F)c12` [Example 377, [(7S)-2,7-Dimethyl-3-(3,4,5-trifluorophenyl)-5,7-dihydro-4H-pyrazolo[3,4-c]pyridin-6-yl]-(3-fluoropyrazolo[1,5-a]pyridin-4-yl)methanone], which IC50 is on record?
Its IC50 is 0.00468 µM.

Which IC50 does the source give for `CC(C)Oc1cccc(-c2c3c(nn2C)[C@H](C)N(C(=O)c2ccc4ncccc4c2)CC3)c1` [Example 498, [(7S)-3-(3-Isopropoxyphenyl)-2,7-dimethyl-5,7-dihydro-4H-pyrazolo[3,4-c]pyridin-6-yl]-(6-quinolyl)methanone] here?
The IC50 was 0.361 µM.

With `Cc1cccc2c(C(=O)N3CCc4c(nn(C)c4-c4cc(F)c(F)c(F)c4)[C@@H]3C)cnn12` [Example 386, [(7S)-2,7-Dimethyl-3-(3,4,5-trifluorophenyl)-5,7-dihydro-4H-pyrazolo[3,4-c]pyridin-6-yl]-(7-methylpyrazolo[1,5-a]pyridin-3-yl)methanone] as the compound, how does the IC50 read?
The IC50 was 0.0117 µM.

How did the IC50 turn out when `Cc1ccn2c(C(=O)N3CCc4c(nn(C)c4-c4cc(F)c(F)c(F)c4)[C@@H]3C)c(C)nc2c1` [Example 404, (2,7-Dimethylimidazo[1,2-a]pyridin-3-yl)-[(7S)-2,7-dimethyl-3-(3,4,5-trifluorophenyl)-5,7-dihydro-4H-pyrazolo[3,4-c]pyridin-6-yl]methanone] was run?
Its IC50 is 0.0505 µM.

Which IC50 does the source give for `Cc1[nH]c2ncccc2c1C(=O)N1CCc2c(nn(C)c2-c2cc(F)c(F)c(F)c2)[C@@H]1C` [Example 375, [(7S)-2,7-Dimethyl-3-(3,4,5-trifluorophenyl)-5,7-dihydro-4H-pyrazolo[3,4-c]pyridin-6-yl]-(2-methyl-1H-pyrrolo[2,3-b]pyridin-3-yl)methanone] here?
Its IC50 is 0.0303 µM.

`COc1cccn2ncc(C(=O)N3CCc4c(nn(C)c4-c4cc(F)c(F)c(F)c4)[C@@H]3C)c12` [Example 390, [(7S)-2,7-Dimethyl-3-(3,4,5-trifluorophenyl)-5,7-dihydro-4H-pyrazolo[3,4-c]pyridin-6-yl]-(4-methoxypyrazolo[1,5-a]pyridin-3-yl)methanone] was tested. Which IC50 did it give?
The IC50 was 0.0126 µM.

Which IC50 does the source give for `C[C@H]1c2nn(C)c(-c3cc(F)c(F)c(F)c3)c2CCN1C(=O)c1cccc2c1CNCC2` [Example 575, [(7S)-2,7-Dimethyl-3-(3,4,5-trifluorophenyl)-5,7-dihydro-4H-pyrazolo[3,4-c]pyridin-6-yl]-(1,2,3,4-tetrahydroisoquinolin-8-yl)methanone] here?
Its IC50 is 0.0727 µM.

Which IC50 does the source give for `COc1cncc(F)c1C(=O)N1CCc2c(nn(C)c2-c2cc(F)c(F)c(F)c2)[C@@H]1C` [Example 607, [(7S)-2,7-Dimethyl-3-(3,4,5-trifluorophenyl)-5,7-dihydro-4H-pyrazolo[3,4-c]pyridin-6-yl]-(3-fluoro-5-methoxy-4-pyridyl)methanone] here?
The IC50 was 0.0182 µM.

`C[C@H]1c2nn(C)c(-c3cc(F)c(F)c(F)c3)c2CCN1C(=O)c1ccc(F)c2[nH]ccc12` [Example 354, [(7S)-2,7-Dimethyl-3-(3,4,5-trifluorophenyl)-5,7-dihydro-4H-pyrazolo[3,4-c]pyridin-6-yl]-(7-fluoro-1H-indol-4-yl)methanone] was tested. Which IC50 did it give?
Its IC50 is 0.00223 µM.

For `Cc1nc2ccc(C3CC3)cn2c1C(=O)N1CCc2c(nn(C)c2-c2cc(F)c(F)c(F)c2)[C@@H]1C` [Example 618], which IC50 is on record?
The IC50 was 0.0182 µM.

For `C[C@H]1c2nn(C)c(-c3cc(F)c(F)c(F)c3)c2CCN1C(=O)c1cnn2c1OCCC2` [Example 554, 6,7-Dihydro-5H-pyrazolo[5,1-b][1,3]oxazin-3-yl-[(7S)-2,7-dimethyl-3-(3,4,5-trifluorophenyl)-5,7-dihydro-4H-pyrazolo[3,4-c]pyridin-6-yl]methanone], which IC50 is on record?
Its IC50 is 0.0576 µM.

With `COc1ccnc(C(=O)N2CCc3c(nn(C)c3-c3cc(F)cc(C(F)F)c3)[C@@H]2C)c1Cl` [Example 608, (3-Chloro-4-methoxy-2-pyridyl)-[(7S)-3-[3-(difluoromethyl)-5-fluoro-phenyl]-2,7-dimethyl-5,7-dihydro-4H-pyrazolo[3,4-c]pyridin-6-yl]methanone] as the compound, how does the IC50 read?
The IC50 was 0.0217 µM.

For `COc1ccc2c(C(=O)N3CCc4c(nn(C)c4-c4cc(F)c(F)c(F)c4)[C@@H]3C)cnn2c1` [Example 388, [(7S)-2,7-Dimethyl-3-(3,4,5-trifluorophenyl)-5,7-dihydro-4H-pyrazolo[3,4-c]pyridin-6-yl]-(6-methoxypyrazolo[1,5-a]pyridin-3-yl)methanone.TFA salt], which IC50 is on record?
Its IC50 is 0.0607 µM.

Which IC50 does the source give for `C[C@H]1c2nn(C)c(-c3cc(F)c(F)c(F)c3)c2CCN1C(=O)c1cccc2c1oc(=O)n2C` [Example 589, 7-[(7S)-2,7-dimethyl-3-(3,4,5-trifluorophenyl)-5,7-dihydro-4H-pyrazolo[3,4-c]pyridine-6-carbonyl]-3-methyl-1,3-benzoxazol-2-one] here?
The IC50 was 0.00184 µM.

`C[C@H]1c2nn(C)c(-c3cc(F)c(F)c(F)c3)c2CCN1C(=O)c1c(C(F)(F)F)nc2ccccn12` [Example 413, [(7S)-2,7-Dimethyl-3-(3,4,5-trifluorophenyl)-5,7-dihydro-4H-pyrazolo[3,4-c]pyridin-6-yl]-[2-(trifluoromethyl)imidazo[1,2-a]pyridin-3-yl]methanone] was tested. Which IC50 did it give?
The IC50 was 0.023 µM.

How did the IC50 turn out when `C[C@H]1c2nn(C)c(-c3cc(F)c(F)c(F)c3)c2CCN1C(=O)c1ccc2c(ccc[n+]2[O-])c1` [Example 516, [(7S)-2,7-Dimethyl-3-(3,4,5-trifluorophenyl)-5,7-dihydro-4H-pyrazolo[3,4-c]pyridin-6-yl]-(1-oxidoquinolin-1-ium-6-yl)methanone] was run?
Its IC50 is 0.141 µM.

`C[C@H]1c2nn(C)c(-c3cc(F)c(F)c(F)c3)c2CCN1C(=O)c1ccc2nccn2c1` [Example 391, [(7S)-2,7-Dimethyl-3-(3,4,5-trifluorophenyl)-5,7-dihydro-4H-pyrazolo[3,4-c]pyridin-6-yl]-imidazo[1,2-a]pyridin-6-yl-methanone] was tested. Which IC50 did it give?
The IC50 was 0.103 µM.

`C[C@H]1c2nn(C)c(-c3cc(F)c(F)c(F)c3)c2CCN1C(=O)c1ccnc2[nH]cc(F)c12` [Example 605, [(7S)-2,7-Dimethyl-3-(3,4,5-trifluorophenyl)-5,7-dihydro-4H-pyrazolo[3,4-c]pyridin-6-yl]-(3-fluoro-1H-pyrrolo[2,3-b]pyridin-4-yl)methanone] was tested. Which IC50 did it give?
The IC50 was 0.0011 µM.

same assay, conditions: 300 nM [Glycerol-1,3-3H]-oleyl glycerol, one hour incubation

With `Cn1nc2c(c1-c1ccccc1)CCN(C(=O)c1nc3ccccc3o1)C2` [Example 57, Benzo[d]oxazol-2-yl(2-methyl-3-phenyl-2,4,5,7-tetrahydro-6H-pyrazolo[3,4-c]pyridin-6-yl)methanone] as the compound, how does the IC50 read?
Its IC50 is 1.68 µM.

`C[C@H]1c2nn(C)c(-c3cc(F)cc(Cl)c3)c2CCN1C(=O)c1ccc2ncccc2c1` [Example 178, (S)-(3-(3-Chloro-5-fluorophenyl)-2,7-dimethyl-2,4,5,7-tetrahydro-6H-pyrazolo[3,4-c]pyridin-6-yl)(quinolin-6-yl)methanone] was tested. Which IC50 did it give?
The IC50 was 0.00416 µM.

For `Cn1nc2c(c1-c1ccccc1)CCN(C(=O)c1ccc3[nH]cnc3c1)C2` [Example 71, (1H-Benzo[d]imidazol-5-yl)(2-methyl-3-phenyl-2,4,5,7-tetrahydro-6H-pyrazolo[3,4-c]pyridin-6-yl)methanone], which IC50 is on record?
Its IC50 is 1.01 µM.

Which IC50 does the source give for `C[C@H]1c2nn(C)c(-c3cc(F)c(F)c(F)c3)c2CCN1C(=O)c1ccc2ncccc2n1` [Example 244, (S)-(2,7-Dimethyl-3-(3,4,5-trifluorophenyl)-2,4,5,7-tetrahydro-6H-pyrazolo[3,4-c]pyridin-6-yl)(1,5-naphthyridin-2-yl)methanone] here?
Its IC50 is 0.0141 µM.

How did the IC50 turn out when `C[C@@H]1c2nn(C)c(-c3cccc(Cl)c3)c2CCN1C(=O)c1cnc2ccoc2c1` (single isomer, unassigned) [Example 127] was run?
Its IC50 is > 10 µM.

For `COc1cccc(C(=O)N2CCc3c(nn(-c4ccccc4)c3-c3ccccc3)[C@@H]2C)c1` [Example 257, (3-Methoxyphenyl)-[(7S)-7-methyl-2,3-diphenyl-5,7-dihydro-4H-pyrazolo[3,4-c]pyridin-6-yl]methanone], which IC50 is on record?
Its IC50 is 0.101 µM.

Which IC50 does the source give for `Cn1nc2c(c1-c1cccc(Cl)c1)CCN(C(=O)c1ccc3ncccc3c1)C2` [Example 99, (3-(3-Chlorophenyl)-2-methyl-2,4,5,7-tetrahydro-6H-pyrazolo[3,4-c]pyridin-6-yl)(quinolin-6-yl)methanone] here?
The IC50 was 0.268 µM.

For `CC(C)Oc1cncc(C(=O)N2CCc3c(nn(C)c3-c3cccc(Cl)c3)[C@@H]2C)c1` [Example 122, (S)-(3-(3-Chlorophenyl)-2,7-dimethyl-2,4,5,7-tetrahydro-6H-pyrazolo[3,4-c]pyridin-6-yl)(5-isopropoxypyridin-3-yl)methanone], which IC50 is on record?
The IC50 was 0.0782 µM.

For `COc1cc(F)cc(-c2c3c(nn2C)[C@H](C)N(C(=O)c2ccc4nccnc4c2)CC3)c1` [Example 186, (S)-(3-(3-Fluoro-5-methoxyphenyl)-2,7-dimethyl-2,4,5,7-tetrahydro-6H-pyrazolo[3,4-c]pyridin-6-yl)(quinoxalin-6-yl)methanone], which IC50 is on record?
The IC50 was 0.046 µM.

With `Cn1nc2c(c1-c1ccccc1)CCN(C(=O)c1noc3cc(Cl)ccc13)C2` [Example 54, (6-Chlorobenzo[d]isoxazol-3-yl)(2-methyl-3-phenyl-2,4,5,7-tetrahydro-6H-pyrazolo[3,4-c]pyridin-6-yl)methanone] as the compound, how does the IC50 read?
The IC50 was 1.12 µM.

`C[C@H]1c2nn(C)c(-c3cccc(Cl)c3)c2CCN1C(=O)c1ccc2cc[nH]c2n1` [Example 130, (S)-(3-(3-Chlorophenyl)-2,7-dimethyl-2,4,5,7-tetrahydro-6H-pyrazolo[3,4-c]pyridin-6-yl)(1H-pyrrolo[2,3-b]pyridin-6-yl)methanone] was tested. Which IC50 did it give?
The IC50 was 0.274 µM.

For `C[C@@H]1c2nn(C)c(-c3cc(F)cc(Cl)c3)c2CCN1C(=O)c1ccc2ncccc2c1` [Example 179, (R)-(3-(3-Chloro-5-fluorophenyl)-2,7-dimethyl-2,4,5,7-tetrahydro-6H-pyrazolo[3,4-c]pyridin-6-yl)(quinolin-6-yl)methanone], which IC50 is on record?
Its IC50 is 0.593 µM.
